Laboratory results taken from PubChem BioAssay AID1963978 (Molecular Pharmacology Branch, DTP, NCI, 2024).

Tested on: 616215-338-R-J1-PDC spheroids with HUVEC/MSC, viability
Experiment: Anticancer human tumor 616215-338-R-J1-PDC patient-derived colon adenocarcinoma cell line growth inhibition [PI3K]
Conditions: for viability, T/C: stronger effect = lower value; active = viability on the fitted dose curve at most 10% of control; inactive = the rest
Outline: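 Spheroid viability read-out. Co-cultures contained the tumor line plus HUVEC and human MSCs. Each agent was paired with a PI3K inhibitor (inavolisib, alpelisib, duvelisib, copanlisib) across half-log dilutions starting at clinical Cmax, or at 10 microM when Cmax was unknown.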

[1] = curve of first compound, second compound 0.0316 µM
[2] = curve of first compound, second compound 0.1 µM
[3] = curve of first compound, second compound 0.316 µM
[4] = curve of first compound, second compound 1 µM
[5] = curve of first compound, second compound 3.16 µM
[6] = curve of first compound, second compound 10 µM
[7] = second compound 0.0316 µM, first compound 0.000316 µM
[8] = second compound 0.0316 µM, first compound 0.001 µM
[9] = second compound 0.0316 µM, first compound 0.00316 µM
[10] = second compound 0.0316 µM, first compound 0.01 µM
[11] = second compound 0.0316 µM, first compound 0.0316 µM
[12] = second compound 0.0316 µM, first compound 0.1 µM
[13] = second compound 0.1 µM, first compound 0.000316 µM
[14] = second compound 0.1 µM, first compound 0.001 µM
[15] = second compound 0.1 µM, first compound 0.00316 µM
[16] = second compound 0.1 µM, first compound 0.01 µM
[17] = second compound 0.1 µM, first compound 0.0316 µM
[18] = second compound 0.1 µM, first compound 0.1 µM
[19] = second compound 0.316 µM, first compound 0.000316 µM
[20] = second compound 0.316 µM, first compound 0.001 µM
[21] = second compound 0.316 µM, first compound 0.00316 µM
[22] = second compound 0.316 µM, first compound 0.01 µM
[23] = second compound 0.316 µM, first compound 0.0316 µM
[24] = second compound 0.316 µM, first compound 0.1 µM
[25] = second compound 1 µM, first compound 0.000316 µM
[26] = second compound 1 µM, first compound 0.001 µM
[27] = second compound 1 µM, first compound 0.00316 µM
[28] = second compound 1 µM, first compound 0.01 µM
[29] = second compound 1 µM, first compound 0.0316 µM
[30] = second compound 1 µM, first compound 0.1 µM
[31] = second compound 3.16 µM, first compound 0.000316 µM
[32] = second compound 3.16 µM, first compound 0.001 µM
[33] = second compound 3.16 µM, first compound 0.00316 µM
[34] = second compound 3.16 µM, first compound 0.01 µM
[35] = second compound 3.16 µM, first compound 0.0316 µM
[36] = second compound 3.16 µM, first compound 0.1 µM
[37] = second compound 10 µM, first compound 0.000316 µM
[38] = second compound 10 µM, first compound 0.001 µM
[39] = second compound 10 µM, first compound 0.00316 µM
[40] = second compound 10 µM, first compound 0.01 µM
[41] = second compound 10 µM, first compound 0.0316 µM
[42] = second compound 10 µM, first compound 0.1 µM
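Note: spheroids exposed to agents for seven days before the viability read.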

Cn1ncnc1[C@H]1c2n[nH]c(=O)c3cc(F)cc(c23)N[C@@H]1c1ccc(F)cc1 + Cc1nc(NC(=O)N2CCCC2C(N)=O)sc1-c1ccnc(C(C)(C)C(F)(F)F)c1
inactive: viability, T/C [7] 95.2% | viability, T/C [8] 88.9% | viability, T/C [9] 112% | viability, T/C [10] 89.3% | viability, T/C [11] 109% | viability, T/C [12] 99.1% | viability, T/C [13] 101% | viability, T/C [14] 98.7% | viability, T/C [15] 97.8% | viability, T/C [16] 97.2% | viability, T/C [17] 104% | viability, T/C [18] 109% | viability, T/C [19] 92% | viability, T/C [20] 103% | viability, T/C [21] 89.6% | viability, T/C [22] 104% | viability, T/C [23] 99.9% | viability, T/C [24] 90% | viability, T/C [25] 107% | viability, T/C [26] 103% | viability, T/C [27] 94.5% | viability, T/C [28] 93.4% | viability, T/C [29] 90.2% | viability, T/C [30] 93.5% | viability, T/C [31] 103% | viability, T/C [32] 94.6% | viability, T/C [33] 98.5% | viability, T/C [34] 93% | viability, T/C [35] 92.5% | viability, T/C [36] 87.7% | viability, T/C [37] 107% | viability, T/C [38] 91.3% | viability, T/C [39] 85.7% | viability, T/C [40] 81.3% | viability, T/C [41] 81.4% | viability, T/C [42] 80.4%
> 100 nM: IC50 [1] | IC50 [2] | IC50 [3] | IC50 [4] | IC50 [5] | IC50 [6]

Cn1ncnc1[C@H]1c2n[nH]c(=O)c3cc(F)cc(c23)N[C@@H]1c1ccc(F)cc1 + CC(Nc1ncnc2nc[nH]c12)c1cc2cccc(Cl)c2c(=O)n1-c1ccccc1
> 100 nM: IC50 [1] | IC50 [2] | IC50 [3] | IC50 [4] | IC50 [5] | IC50 [6]
inactive: viability, T/C [7] 104% | viability, T/C [8] 104% | viability, T/C [9] 102% | viability, T/C [10] 96.8% | viability, T/C [11] 105% | viability, T/C [12] 96.8% | viability, T/C [13] 87.6% | viability, T/C [14] 97.8% | viability, T/C [15] 97% | viability, T/C [16] 92.9% | viability, T/C [17] 101% | viability, T/C [18] 93.5% | viability, T/C [19] 98.5% | viability, T/C [20] 95.6% | viability, T/C [21] 106% | viability, T/C [22] 96.9% | viability, T/C [23] 96.9% | viability, T/C [24] 101% | viability, T/C [25] 101% | viability, T/C [26] 109% | viability, T/C [27] 99.7% | viability, T/C [28] 105% | viability, T/C [29] 100% | viability, T/C [30] 91.5% | viability, T/C [31] 91.5% | viability, T/C [32] 108% | viability, T/C [33] 106% | viability, T/C [34] 90% | viability, T/C [35] 94.9% | viability, T/C [36] 100% | viability, T/C [37] 111% | viability, T/C [38] 106% | viability, T/C [39] 102% | viability, T/C [40] 96.7% | viability, T/C [41] 100% | viability, T/C [42] 95%

CC(Nc1ccc2c(c1)OCCn1cc(N3C(=O)OCC3C(F)F)nc1-2)C(N)=O (configuration not stated)
inactive: viability, T/C (compound 0.00316 µM) 94.5% [middle of 8 runs] | viability, T/C (compound 0.01 µM) 96.4% [middle of 8 runs] | viability, T/C (compound 0.0316 µM) 100% [middle of 8 runs] | viability, T/C (compound 0.1 µM) 97.1% [middle of 8 runs] | viability, T/C (compound 0.316 µM) 98.8% [middle of 8 runs] | viability, T/C (compound 1 µM) 105% [middle of 8 runs]
> 1000 nM: IC50 (compound alone, run of 05/08/2023)

C=CC(=O)N1CCN(c2nc(=O)n(-c3c(C)ccnc3C(C)C)c3nc(-c4c(O)cccc4F)c(F)cc23)C(C)C1 (configuration not stated)
> 10000 nM: IC50 (curve of compound)
inactive: viability, T/C (compound 0.0316 µM) 96.2% [middle of 4 runs] | viability, T/C (compound 0.1 µM) 92% [middle of 4 runs] | viability, T/C (compound 0.316 µM) 99% [middle of 4 runs] | viability, T/C (compound 1 µM) 99.8% [middle of 4 runs] | viability, T/C (compound 3.16 µM) 93% [middle of 4 runs]
